Reference: PubChem BioAssay AID272 (DTP/NCI, 2004)
Values joined by “and” are separate entries in the source; they are usually repeats but may differ in a detail not shown here. Equal entries are not always repeated. Results filed as inconclusive are left out.

Tested on: Lewis lung carcinoma i.m., BDF1 mice, T/C %
Assay: NCI In Vivo Anticancer Drug Screen. Data for tumor model Lewis Lung Carcinoma (intramuscular) in B6D2F1 (BDF1) mice
In short: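 Antitumour activity is assessed in transplanted-tumour mice. Endpoint is survival or tumour size, normalised to vehicle-dosed controls (T/C).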

**Q.** What does the source list for `CO[C@@]12[C@H](COC(N)=O)C3=C(C(=O)C(C)=C(N)C3=O)N1C[C@@H]1N[C@@H]12`?
**A.** T/C (endpoint: mean tumor weight, dose: 0.5 mg/kg/injection, schedule: Q01DX005 (ip), vehicle: other, higher = larger tumour): 101 % of control; T/C (endpoint: mean tumor weight, dose: 1.0 mg/kg/injection, schedule: Q01DX005 (ip), vehicle: other, higher = larger tumour): 82 % of control; T/C (endpoint: mean tumor weight, dose: 2.0 mg/kg/injection, schedule: Q01DX005 (ip), vehicle: other, higher = larger tumour): 75 % of control; T/C (endpoint: median survival time, dose: 0.25 mg/kg/injection, schedule: Q01DX009 (ip), vehicle: Klucel (hydroxypropylcellulose) (HPC), higher = longer survival): 86 % of control and 112 % of control; T/C (endpoint: median survival time, dose: 0.25 mg/kg/injection, schedule: Q01DX011 (ip), vehicle: saline, higher = longer survival): 112 % of control; T/C (endpoint: median survival time, dose: 0.5 mg/kg/injection, schedule: Q01DX005 (ip), vehicle: other, higher = longer survival): 90 % of control; T/C (endpoint: median survival time, dose: 0.5 mg/kg/injection, schedule: Q01DX005 (ip), vehicle: saline, higher = longer survival): 107 % of control; T/C (endpoint: median survival time, dose: 0.5 mg/kg/injection, schedule: Q01DX009 (ip), vehicle: Klucel (hydroxypropylcellulose) (HPC), higher = longer survival): 101 % of control and 110 % of control; T/C (endpoint: median survival time, dose: 0.5 mg/kg/injection, schedule: Q01DX011 (ip), vehicle: saline, higher = longer survival): 114 % of control; T/C (endpoint: median survival time, dose: 1.0 mg/kg/injection, schedule: Q01DX005 (ip), vehicle: saline, higher = longer survival): 90 % of control; T/C (endpoint: median survival time, dose: 1.0 mg/kg/injection, schedule: Q01DX009 (ip), vehicle: Klucel (hydroxypropylcellulose) (HPC), higher = longer survival): 97 % of control; T/C (endpoint: median survival time, dose: 1.0 mg/kg/injection, schedule: Q01DX011 (ip), vehicle: water, higher = longer survival): 86 % of control; T/C (endpoint: median survival time, dose: 2.0 mg/kg/injection, schedule: Q01DX005 (ip), vehicle: other, higher = longer survival): 114 % of control; T/C (endpoint: median tumor weight (est.), dose: 0.5 mg/kg/injection, schedule: Q01DX005 (ip), vehicle: saline, higher = larger tumour): 64 % of control; T/C (endpoint: median tumor weight (est.), dose: 1.0 mg/kg/injection, schedule: Q01DX005 (ip), vehicle: saline, higher = larger tumour): 78 % of control

**Q.** How did the T/C (endpoint: median survival time, dose: 20.0 mg/kg/injection, schedule: Q01DX011 (ip), vehicle: saline, higher = longer survival) turn out when `O=c1n(CC2CO2)c(=O)n(CC2CO2)c(=O)n1CC1CO1` (stereo unspecified) was run?
**A.** The T/C was 115 % of control.

**Q.** What about the T/C (endpoint: median survival time, dose: 30.0 mg/kg/injection, schedule: Q01DX011 (ip), vehicle: saline, higher = longer survival) of the same compound?
**A.** Its T/C is 120 % of control and 122 % of control.

**Q.** What about the T/C (endpoint: median survival time, dose: 40.0 mg/kg/injection, schedule: Q01DX011 (ip), vehicle: saline, higher = longer survival) of the same compound?
**A.** The T/C was 117 % of control and 124 % of control.

**Q.** And the T/C (endpoint: median survival time, dose: 70.0 mg/kg/injection, schedule: Q01DX011 (ip), vehicle: saline, higher = longer survival)?
**A.** Its T/C is 114 % of control.

**Q.** And the T/C (endpoint: median survival time, dose: 80.0 mg/kg/injection, schedule: Q01DX011 (ip), vehicle: saline, higher = longer survival)?
**A.** The T/C was 90 % of control.

**Q.** What about the T/C (endpoint: median survival time, dose: 90.0 mg/kg/injection, schedule: Q01DX011 (ip), vehicle: saline, higher = longer survival) of the same compound?
**A.** Its T/C is 115 % of control.

**Q.** Which T/C (endpoint: mean tumor weight (est.), dose: 2.0 mg/kg/injection, schedule: Q01DX011 (ip), vehicle: saline, higher = larger tumour) does the source give for `CCCCCCCCCCCC(c1ccccc1)[N+](C)(C)C` (stereo unspecified) here?
**A.** Its T/C is 89 % of control.

**Q.** And the T/C (endpoint: mean tumor weight (est.), dose: 4.0 mg/kg/injection, schedule: Q01DX011 (ip), vehicle: saline, higher = larger tumour)?
**A.** Its T/C is 76 % of control.

**Q.** And the T/C (endpoint: median survival time, dose: 2.0 mg/kg/injection, schedule: Q01DX011 (ip), vehicle: saline, higher = longer survival)?
**A.** Its T/C is 104 % of control.

**Q.** What about the T/C (endpoint: median survival time, dose: 4.0 mg/kg/injection, schedule: Q01DX011 (ip), vehicle: saline, higher = longer survival) of the same compound?
**A.** The T/C was 108 % of control.

**Q.** What does the source list for `Cc1c(O)ccc(=O)n1O`?
**A.** T/C (endpoint: mean tumor weight (est.), dose: 27.5 mg/kg/injection, schedule: Q01DX011 (ip), vehicle: saline, higher = larger tumour): 99 % of control; T/C (endpoint: mean tumor weight (est.), dose: 55.0 mg/kg/injection, schedule: Q01DX011 (ip), vehicle: saline, higher = larger tumour): 121 % of control; T/C (endpoint: mean tumor weight (est.), dose: 110.0 mg/kg/injection, schedule: Q01DX011 (ip), vehicle: saline, higher = larger tumour): 84 % of control; T/C (endpoint: mean tumor weight (est.), dose: 220.0 mg/kg/injection, schedule: Q01DX011 (ip), vehicle: saline, higher = larger tumour): 79 % of control; T/C (endpoint: median survival time, dose: 27.5 mg/kg/injection, schedule: Q01DX011 (ip), vehicle: saline, higher = longer survival): 103 % of control; T/C (endpoint: median survival time, dose: 55.0 mg/kg/injection, schedule: Q01DX011 (ip), vehicle: saline, higher = longer survival): 96 % of control; T/C (endpoint: median survival time, dose: 110.0 mg/kg/injection, schedule: Q01DX011 (ip), vehicle: saline, higher = longer survival): 98 % of control; T/C (endpoint: median survival time, dose: 220.0 mg/kg/injection, schedule: Q01DX011 (ip), vehicle: saline, higher = longer survival): 121 % of control

**Q.** For `CC1([CH2][Hg][I])CS(=O)(=O)CC(C)([CH2][Hg][I])O1` (stereo unspecified), which T/C (endpoint: mean tumor weight (est.), dose: 2.5 mg/kg/injection, schedule: Q01DX011 (ip), vehicle: saline with Tween-80, higher = larger tumour) is on record?
**A.** The T/C was 82 % of control.

**Q.** What about the T/C (endpoint: mean tumor weight (est.), dose: 5.0 mg/kg/injection, schedule: Q01DX011 (ip), vehicle: saline with Tween-80, higher = larger tumour) of the same compound?
**A.** The T/C was 89 % of control.

**Q.** What about the T/C (endpoint: mean tumor weight (est.), dose: 10.0 mg/kg/injection, schedule: Q01DX011 (ip), vehicle: saline with Tween-80, higher = larger tumour) of the same compound?
**A.** The T/C was 49 % of control.

**Q.** And the T/C (endpoint: mean tumor weight (est.), dose: 20.0 mg/kg/injection, schedule: Q01DX011 (ip), vehicle: saline with Tween-80, higher = larger tumour)?
**A.** The T/C was 47 % of control.

**Q.** What about the T/C (endpoint: median survival time, dose: 2.5 mg/kg/injection, schedule: Q01DX011 (ip), vehicle: saline with Tween-80, higher = longer survival) of the same compound?
**A.** The T/C was 94 % of control.

**Q.** And the T/C (endpoint: median survival time, dose: 5.0 mg/kg/injection, schedule: Q01DX011 (ip), vehicle: saline with Tween-80, higher = longer survival)?
**A.** Its T/C is 98 % of control.

**Q.** What about the T/C (endpoint: median survival time, dose: 10.0 mg/kg/injection, schedule: Q01DX011 (ip), vehicle: saline with Tween-80, higher = longer survival) of the same compound?
**A.** Its T/C is 112 % of control.

**Q.** What about the T/C (endpoint: median survival time, dose: 20.0 mg/kg/injection, schedule: Q01DX011 (ip), vehicle: saline with Tween-80, higher = longer survival) of the same compound?
**A.** Its T/C is 100 % of control.
